Results: ChEMBL document CHEMBL2390858, “Design, synthesis and anti-tuberculosis activity of 1-adamantyl-3-heteroaryl ureas with improved in vitro pharmacokinetic properties” (Bioorg Med Chem, 2013)
pIC50: −log10 of the molar value. Values after ≈ are worked out from the molar mass of the structure shown.

Experiments:
[1] = tested on: Bacillus anthracis; experiment: microbe, parasite or virus in culture; conditions: Sterne
[2] = tested on: Klebsiella pneumoniae; experiment: microbe, parasite or virus in culture
[3] = tested on: Enterococcus faecalis; experiment: microbe, parasite or virus in culture
[4] = tested on: Escherichia coli; experiment: microbe, parasite or virus in culture; conditions: K-12
[5] = target: T1, Bifunctional epoxide hydrolase 2 (Homo sapiens, UniProt P34913)
T1 sequence (P34913 whole entry): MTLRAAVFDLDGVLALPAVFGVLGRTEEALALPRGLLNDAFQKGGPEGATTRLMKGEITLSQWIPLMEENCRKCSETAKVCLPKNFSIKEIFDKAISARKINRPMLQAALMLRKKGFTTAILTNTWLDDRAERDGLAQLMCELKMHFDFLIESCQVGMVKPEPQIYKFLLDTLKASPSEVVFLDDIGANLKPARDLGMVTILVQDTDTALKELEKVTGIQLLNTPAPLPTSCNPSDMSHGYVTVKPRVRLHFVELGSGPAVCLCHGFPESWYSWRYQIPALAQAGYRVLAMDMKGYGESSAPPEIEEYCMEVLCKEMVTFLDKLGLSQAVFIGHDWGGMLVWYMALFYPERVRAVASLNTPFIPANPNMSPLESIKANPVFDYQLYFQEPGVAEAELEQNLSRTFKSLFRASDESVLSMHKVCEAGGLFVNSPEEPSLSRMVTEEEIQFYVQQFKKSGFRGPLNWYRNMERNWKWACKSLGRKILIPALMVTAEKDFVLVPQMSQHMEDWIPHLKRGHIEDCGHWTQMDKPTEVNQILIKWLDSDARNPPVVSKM

[6] = tested on: Proteus vulgaris; experiment: microbe, parasite or virus in culture
[7] = tested on: Acinetobacter; experiment: microbe, parasite or virus in culture
[8] = tested on: Streptococcus pyogenes; experiment: microbe, parasite or virus in culture
[9] = buffer, 18 h, pH 7.4
[10] = tested on: Streptococcus pneumoniae; experiment: microbe, parasite or virus in culture
[11] = tested on: Staphylococcus aureus; experiment: microbe, parasite or virus in culture; conditions: ATCC 29213
[12] = tested on: Mycobacterium tuberculosis; experiment: microbe, parasite or virus in culture; conditions: H37Rv, 168 h
[13] = tested on: Burkholderia cepacia; experiment: microbe, parasite or virus in culture
[14] = tested on: Proteus mirabilis; experiment: microbe, parasite or virus in culture
[15] = tested on: Bacillus subtilis; experiment: microbe, parasite or virus in culture
[16] = tested on: Pseudomonas aeruginosa; experiment: microbe, parasite or virus in culture
[17] = tested on: Staphylococcus aureus; experiment: microbe, parasite or virus in culture; conditions: NRS70

| SMILES | MIC [1] [µg/mL] | MIC [2] [µg/mL] | MIC [3] [µg/mL] | MIC [4] [µg/mL] | pIC50 [5] | MIC [6] [µg/mL] | MIC [7] [µg/mL] | MIC [8] [µg/mL] | solubility [9] [µg/mL] | MIC [10] [µg/mL] | MIC [11] [µg/mL] | MIC [12] [µg/mL] | MIC [13] [µg/mL] | MIC [14] [µg/mL] | MIC [15] [µg/mL] | MIC [16] [µg/mL] | MIC [17] [µg/mL] |
| --- | --- | --- | --- | --- | --- | --- | --- | --- | --- | --- | --- | --- | --- | --- | --- | --- | --- |
| O=C(Nc1nccnn1)NC12CC3CC(CC(C3)C1)C2 | > 200 | > 200 | > 200 | > 200 | 5.99 | > 200 | > 200 | > 200 | 6.8 (≈ 24.9 µM) | > 200 | > 200 | 200 (≈ 732 µM) | > 200 | > 200 | > 200 | > 200 | > 200 |
| Cc1cc(NS(=O)(=O)c2ccc(NC(=O)NC34CC5CC(CC(C5)C3)C4)cc2)no1 | > 200 | > 200 | > 200 | > 200 | 6.53 | > 200 | > 200 | > 200 | 2 (≈ 4.65 µM) | > 200 | > 200 | 25 (≈ 58.1 µM) | > 200 | > 200 | > 200 | > 200 | 50 (≈ 116 µM) |
| Cc1ccnc(NS(=O)(=O)c2ccc(NC(=O)NC34CC5CC(CC(C5)C3)C4)cc2)n1 | 100 (≈ 226 µM) | > 200 | > 200 | > 200 | 7.77 | > 200 | 100 (≈ 226 µM) | > 200 | 2.5 (≈ 5.66 µM) | > 200 | > 200 | > 25 | > 200 | > 200 | > 200 | > 200 | > 200 |
| O=C(Nc1ccon1)NC12CC3CC(CC(C3)C1)C2 | > 200 | > 200 | 100 (≈ 383 µM) | > 200 | 7.34 | > 200 | > 200 | > 200 | 20.3 (≈ 77.7 µM) | > 200 | > 200 | 50 (≈ 191 µM) | 100 (≈ 383 µM) | > 200 | > 200 | > 200 | > 200 |
| O=C(Nc1ccncc1)NC12CC3CC(CC(C3)C1)C2 | > 200 | > 200 | > 200 | > 200 | 6.76 | > 200 | > 200 | > 200 | 7 (≈ 25.8 µM) | > 200 | > 200 | 18 (≈ 66.3 µM) | > 200 | > 200 | > 200 | > 200 | > 200 |
| Cc1nc(NS(=O)(=O)c2ccc(NC(=O)NC34CC5CC(CC(C5)C3)C4)cc2)oc1C | > 200 | > 200 | > 200 | > 200 | 7.89 | > 200 | > 200 | > 200 | 27.1 (≈ 61 µM) | > 200 | > 200 | > 25 | > 200 | > 200 | > 200 | > 200 | > 200 |
| O=C(Nc1nnc(C2CCC2)o1)NC12CC3CC(CC(C3)C1)C2 | 25 (≈ 79 µM) | > 200 | 100 (≈ 316 µM) | > 200 | 6.62 | > 200 | > 200 | 100 (≈ 316 µM) | 10.5 (≈ 33.2 µM) | 100 (≈ 316 µM) | 50 (≈ 158 µM) | 12.5 (≈ 39.5 µM) | > 200 | > 200 | 50 (≈ 158 µM) | > 200 | 50 (≈ 158 µM) |
| O=C(Nc1nnc(C2CC2)o1)NC12CC3CC(CC(C3)C1)C2 | 50 (≈ 165 µM) | > 200 | > 200 | > 200 | 6.30 | > 200 | > 200 | > 200 | 38.3 (≈ 127 µM) | > 200 | > 200 | 12.5 (≈ 41.3 µM) | > 200 | > 200 | 100 (≈ 331 µM) | > 200 | > 200 |
| Cc1cc(CNC(=O)NC23CC4CC(CC(C4)C2)C3)no1 | > 200 | > 200 | > 200 | > 200 | 5.81 | > 200 | > 200 | > 200 | 3 (≈ 10.4 µM) | > 200 | > 200 | > 50 | > 200 | > 200 | > 200 | > 200 | > 200 |
